Among the test systems are MCF7; A549; HOP-92; SN12C; Hs-578T; PC-3; HCT-15; UACC-257; SR; MOLT-4; NCI-H522; SK-MEL-5; OVCAR-5; UACC-62; CAKI-1; DU-145; NCI/ADR-RES; MDA-MB-231; UO-31; HCC 2998.
Assay in all cases: inhibition of tumour cell growth, NCI panel, 48 h

These results are taken from ChEMBL document CHEMBL1201862, “PubChem BioAssay data set” (2004).

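Each compound was tested at five concentrations against cells in 96-well plates for 48 hours. GI50 is the concentration that inhibits growth by half.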 Calls of active or inactive are those of the source. No stated cut-off is given here; in the data, active = GI50 up to about 1.1 µM and inactive = higher.

On to `NC(Cc1cc(Br)c(O)c(Br)c1)C(=O)O` (stereo unspecified), for which the GI50 with MCF7, in the experiment on A549, in the experiment with HOP-92, with SN12C, in the experiment with Hs-578T and in the experiment with PC-3 was > 100 µM (inactive) throughout. For the same compound, the GI50 was over 100 µM with HCT-15; > 100 µM (inactive) in the experiment on UACC-257; > 100 µM (inactive) in the experiment on SR; > 100 µM (inactive) in the experiment with MOLT-4; > 100 µM (inactive) in the experiment with NCI-H522; > 100 µM (inactive) in the experiment on SK-MEL-5. For the same compound, the GI50 in the experiment on OVCAR-5, in the experiment on UACC-62, with CAKI-1, with DU-145, in the experiment with NCI/ADR-RES and with MDA-MB-231 was > 100 µM (inactive) each time.

With `Cn1c(=S)c2nc(SCCN3CCCC3)[nH]c2n(C)c1=O`, the GI50 in the experiment with MCF7, with A549, in the experiment on UO-31, in the experiment on HOP-92, in the experiment on SN12C and in the experiment with Hs-578T was > 100 µM (inactive) throughout. The GI50 with PC-3 is > 100 µM (inactive); in the experiment on HCT-15, over 100 µM; in the experiment with UACC-257 it was > 100 µM (inactive); in the experiment with SR, > 100 µM (inactive); with MOLT-4, > 100 µM (inactive); with NCI-H522, > 100 µM (inactive). Moreover, the GI50 in the experiment on SK-MEL-5, in the experiment on OVCAR-5, with UACC-62, in the experiment on CAKI-1, in the experiment on DU-145 and in the experiment with NCI/ADR-RES was > 100 µM (inactive) in each case. The GI50 in the experiment with MDA-MB-231 is > 100 µM (inactive).

On to `COc1ccc2oc(C(=O)N3CC(CCl)c4ccc(N)cc43)cc2c1` (stereo unspecified), for which the GI50 in the experiment on MCF7 is 0.465 µM (active); with A549 it was 0.303 µM (active); with UO-31 it was 0.194 µM (active); in the experiment on HOP-92, 0.358 µM (active); in the experiment with SN12C, 0.869 µM (active); with Hs-578T, 0.857 µM (active). Moreover, the GI50 was 0.296 µM (active) in the experiment on PC-3; 0.238 µM in the experiment on HCT-15; 0.596 µM (active) in the experiment on UACC-257; 0.16 µM (active) in the experiment on SR; 0.255 µM (active) in the experiment on MOLT-4; 0.489 µM (active) with HCC 2998. Further, the GI50 was 0.0189 µM (active) in the experiment with NCI-H522; 0.176 µM (active) in the experiment with SK-MEL-5; 0.53 µM (active) in the experiment on OVCAR-5; 0.192 µM (active) in the experiment on UACC-62; 0.185 µM (active) with CAKI-1; 0.247 µM (active) with DU-145. The GI50 with NCI/ADR-RES was 0.213 µM (active); with MDA-MB-231, 0.826 µM (active).

`CCc1n[nH]c(=O)n1/N=C/c1c(O)ccc2ccccc12`: the GI50 in the experiment on MCF7 is > 100 µM (inactive); with A549, > 100 µM (inactive); with UO-31, > 100 µM (inactive); with HOP-92 it was > 100 µM (inactive); with SN12C, > 100 µM (inactive); with Hs-578T, 2.06 µM (inactive). In addition, the GI50 in the experiment on PC-3 was > 100 µM (inactive); with HCT-15, over 100 µM; in the experiment with UACC-257 it was > 100 µM (inactive); in the experiment on SR it was > 100 µM (inactive); with MOLT-4 it was > 100 µM (inactive); in the experiment with HCC 2998, > 100 µM (inactive). The GI50 in the experiment with NCI-H522, in the experiment with SK-MEL-5, in the experiment with OVCAR-5, in the experiment with UACC-62, in the experiment on DU-145 and in the experiment on NCI/ADR-RES was > 100 µM (inactive) throughout. In addition, the GI50 in the experiment on MDA-MB-231 is > 100 µM (inactive).

Turning to `C1=N\CCNCCNCC/N=C\c2ccc(cc2)OCc2cccc(n2)COc2ccc/1cc2`, the GI50 is 29.8 µM (inactive) in the experiment with MCF7; > 100 µM (inactive) in the experiment with A549; > 100 µM (inactive) with UO-31; > 100 µM (inactive) with HOP-92; > 100 µM (inactive) in the experiment with SN12C; 99.3 µM (inactive) in the experiment with Hs-578T. The GI50 with PC-3 was 79.4 µM (inactive); in the experiment with HCT-15, over 100 µM; with UACC-257, 88.5 µM (inactive); in the experiment with SR it was 50.5 µM (inactive); in the experiment on MOLT-4, 29 µM (inactive); with SK-MEL-5, 51.4 µM (inactive). Besides, the GI50 in the experiment with OVCAR-5 is > 100 µM (inactive); in the experiment on UACC-62, > 100 µM (inactive); in the experiment with CAKI-1 it was > 100 µM (inactive); with DU-145, > 100 µM (inactive); in the experiment with NCI/ADR-RES, 95.1 µM (inactive); in the experiment with MDA-MB-231, > 100 µM (inactive).

Consider `CCOC(=O)C(C(=O)OCC)=C1SC(=N\c2ccccc2)/C(=N/c2ccccc2)N1c1ccccc1`, for which the GI50 is 75.3 µM (inactive) in the experiment with MCF7; > 100 µM (inactive) in the experiment with A549; > 100 µM (inactive) in the experiment on UO-31; 54 µM (inactive) in the experiment with HOP-92; > 100 µM (inactive) with SN12C; 90.8 µM (inactive) with Hs-578T. Further, the GI50 is 58.7 µM (inactive) in the experiment with PC-3; over 100 µM in the experiment on HCT-15; > 100 µM (inactive) in the experiment with SR; 13.3 µM (inactive) with MOLT-4; 45.8 µM (inactive) with HCC 2998; 76.6 µM (inactive) with NCI-H522. Further, the GI50 in the experiment with SK-MEL-5 was 52.1 µM (inactive); in the experiment on OVCAR-5, > 100 µM (inactive); with UACC-62, 53.6 µM (inactive); in the experiment with CAKI-1 it was > 100 µM (inactive); in the experiment with DU-145 it was > 100 µM (inactive); with NCI/ADR-RES it was > 100 µM (inactive). Besides, the GI50 in the experiment with MDA-MB-231 is > 100 µM (inactive).

Regarding `CC(=N\c1ccncc1)/C(C)=N/c1ccncc1`, the GI50 in the experiment with MCF7 was 16.7 µM (inactive); in the experiment with A549 it was > 100 µM (inactive); in the experiment with UO-31, 17 µM (inactive); in the experiment with HOP-92, 22.3 µM (inactive); with SN12C, 16.2 µM (inactive); in the experiment with Hs-578T it was 28.8 µM (inactive). The GI50 with PC-3 is 19.3 µM (inactive); in the experiment on HCT-15 it was 14.4 µM; in the experiment with UACC-257, 36.3 µM (inactive); in the experiment with SR it was 27.1 µM (inactive); in the experiment with MOLT-4, 24.4 µM (inactive); with HCC 2998, 19 µM (inactive). Also, the GI50 in the experiment on NCI-H522 was 16.3 µM (inactive); in the experiment with SK-MEL-5, 19.5 µM (inactive); in the experiment with OVCAR-5, 17 µM (inactive); in the experiment with CAKI-1 it was 16.8 µM (inactive); in the experiment on DU-145, 53.6 µM (inactive); with NCI/ADR-RES it was 34.4 µM (inactive). For the same compound, the GI50 with MDA-MB-231 is 21.8 µM (inactive).

Regarding `Cc1cccc(/N=C/C=C(\Cl)c2ccc3ccccc3c2)c1`, the GI50 with MCF7 was 16.4 µM (inactive); with A549, 44.6 µM (inactive); with UO-31, 16.2 µM (inactive); with HOP-92, 24.1 µM (inactive); in the experiment with SN12C, 16.6 µM (inactive); in the experiment with Hs-578T it was 26.6 µM (inactive). Moreover, the GI50 was 21 µM (inactive) in the experiment on PC-3; 11.7 µM in the experiment on HCT-15; 15.7 µM (inactive) in the experiment with UACC-257; 3.88 µM (inactive) in the experiment with SR; 2.56 µM (inactive) with MOLT-4; 32.6 µM (inactive) in the experiment on NCI-H522. Further, the GI50 in the experiment with SK-MEL-5 was 17.7 µM (inactive); in the experiment with OVCAR-5 it was 27.8 µM (inactive); in the experiment with UACC-62 it was 15.1 µM (inactive); in the experiment on CAKI-1, 17.2 µM (inactive); in the experiment with DU-145, 17.7 µM (inactive); with NCI/ADR-RES, 17.7 µM (inactive). Besides, the GI50 in the experiment on MDA-MB-231 is 15.9 µM (inactive).

For `COc1ccc(C=C2C(=O)NC(=S)NC2=O)c2ccccc12`, the GI50 is 22.5 µM (inactive) in the experiment with MCF7; > 100 µM (inactive) in the experiment with UO-31; > 100 µM (inactive) in the experiment on HOP-92; 28.2 µM (inactive) in the experiment on Hs-578T; 26.2 µM (inactive) with PC-3; 33.1 µM in the experiment with HCT-15. Further, the GI50 with UACC-257 was 14.4 µM (inactive); in the experiment on SR, 42.7 µM (inactive); with MOLT-4, 83.2 µM (inactive); in the experiment on HCC 2998, 32.6 µM (inactive); in the experiment with NCI-H522, 47.2 µM (inactive); with SK-MEL-5 it was 29.1 µM (inactive). In addition, the GI50 was 5.13 µM (inactive) with OVCAR-5; 50.2 µM (inactive) in the experiment with CAKI-1; 23.8 µM (inactive) with DU-145; 26.7 µM (inactive) in the experiment on NCI/ADR-RES; 39.9 µM (inactive) with MDA-MB-231.

As to `O=C1/C(=C/c2cccc(F)c2)CCCc2ccccc21`, the GI50 in the experiment with MCF7 was 14.6 µM (inactive); with A549, 17.7 µM (inactive); in the experiment with UO-31, 16.3 µM (inactive); in the experiment on HOP-92, 15.8 µM (inactive); in the experiment on SN12C, 17.9 µM (inactive); in the experiment on Hs-578T it was 13.2 µM (inactive). Besides, the GI50 in the experiment on PC-3 was 15.7 µM (inactive); with HCT-15 it was 15.9 µM; in the experiment on UACC-257, 16.9 µM (inactive); with SR, 14.7 µM (inactive); in the experiment on MOLT-4, 17.7 µM (inactive); in the experiment with HCC 2998 it was 14.7 µM (inactive). Further, the GI50 with NCI-H522 was 12.9 µM (inactive); in the experiment on OVCAR-5, 15.1 µM (inactive); with UACC-62, 15.3 µM (inactive); with CAKI-1, 17.7 µM (inactive); with DU-145 it was 16.9 µM (inactive); with NCI/ADR-RES, 16.5 µM (inactive). The GI50 in the experiment with MDA-MB-231 was 18.3 µM (inactive).

As to `c1ccc2c(c1)Nc1c3ccccc3nc3cccc-2c13`, the GI50 is 1.24 µM (inactive) with MCF7; 1.05 µM (active) in the experiment with A549; 1.36 µM (inactive) with UO-31; 0.979 µM (active) with SN12C; 1.73 µM (inactive) in the experiment with Hs-578T; 0.968 µM (active) in the experiment with PC-3. For the same compound, the GI50 in the experiment on HCT-15 was 0.632 µM; with UACC-257, 1.73 µM (inactive); with SR, 0.462 µM (active); with MOLT-4 it was 0.157 µM (active); in the experiment with HCC 2998, 1.02 µM (active); in the experiment with NCI-H522, 1.23 µM (inactive). Moreover, the GI50 with SK-MEL-5 is 1.42 µM (inactive); with OVCAR-5 it was 1.43 µM (inactive); in the experiment with UACC-62 it was 1.63 µM (inactive); in the experiment on CAKI-1 it was 1.08 µM (active); with DU-145, 1.48 µM (inactive); with NCI/ADR-RES it was 1.05 µM (active). Also, in the experiment on MDA-MB-231, the GI50 was 0.923 µM (active).
